According to patent US7541367B2, “3-benzoimidazolyl-pyrazolopyridines useful in treating kinase disorders” (Janssen Pharmaceutica, N.V., priority 2005, dated 2009):

Columns and labels:
[1] = molecular target: T1, VEGF-R2 (Rattus norvegicus, UniProt O08775); assay: VEGF-R2 kinase screening assay (33P-ATP FlashPlate); type: biochemical; settings: rat VEGF-R2 kinase domain; 10 μM ATP; 1 hr at 30° C;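 note: Read-out is ³³P incorporation from ³³P-γ-ATP into biotinylated peptide substrate captured on streptavidin FlashPlate, counted by scintillation, 1% DMSO final, inhibition scaled between per-plate maximum and minimum signals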
T1 construct: polyhistidine (N)

[2] = molecular target: T2, HER2 (Homo sapiens, UniProt P04626); assay: HER2 kinase screening assay (33P-ATP FlashPlate); type: biochemical; settings: GST-HIS6 HER-2 aa 679 to 1255; 10 μM ATP; 1 hr at 30° C;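 note: Biotin-poly(GT) 4:1 peptide captured on streptavidin FlashPlate, 33P transfer from γ-ATP read by scintillation counting, lower incorporation means inhibition, 1% DMSO final, 100 µL reaction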
T2 construct: GST (Glutathione-S-Transferase) (N); HIS6 (N); thrombin cleavage site (N); purchased Proqinase, Freiburg, Germany

[3] = molecular target: T3, RET (Homo sapiens, UniProt P07949); assay: RET kinase screening assay (33P-ATP FlashPlate); type: biochemical; settings: human RET kinase domain; 10 μM ATP; 1 hr at 30° C;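 note: biotinylated peptide substrate captured on streptavidin FlashPlate, 33P phosphate transfer read by scintillation counting, 1% DMSO, lower incorporation means inhibition, percent relative to per-plate maximum and minimum signals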
T3 construct: polyhistidine (N)
T3 sequence (P07949 658-1114 limits assumed): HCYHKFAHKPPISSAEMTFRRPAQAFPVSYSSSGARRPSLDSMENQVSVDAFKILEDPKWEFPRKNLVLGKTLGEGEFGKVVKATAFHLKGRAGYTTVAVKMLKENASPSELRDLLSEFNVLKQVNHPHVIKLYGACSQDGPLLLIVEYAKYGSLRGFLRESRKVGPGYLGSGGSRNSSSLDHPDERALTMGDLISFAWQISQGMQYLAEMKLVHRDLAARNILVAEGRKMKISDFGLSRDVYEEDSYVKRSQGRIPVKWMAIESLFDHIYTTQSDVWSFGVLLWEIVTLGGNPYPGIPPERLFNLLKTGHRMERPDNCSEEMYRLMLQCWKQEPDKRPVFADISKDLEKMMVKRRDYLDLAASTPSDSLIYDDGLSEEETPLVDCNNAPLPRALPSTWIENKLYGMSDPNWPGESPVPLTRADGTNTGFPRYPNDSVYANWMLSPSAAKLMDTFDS

[4] = molecular target: T4, c-Src kinase (Homo sapiens, UniProt P12931); assay: c-Src Kinase Assay; type: biochemical; settings: 5 μM ATP
T4 construct: purchased Upstate Biotechnology, Lake Placid, N.Y
Summary of the method: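 Human c-Src phosphorylated Cdc2 peptide (100 μM) […]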

[5] = molecular target: T5, Lyn kinase (Homo sapiens, UniProt P07948); assay: Lyn Kinase Assay; type: biochemical; settings: 5 μM ATP
T5 construct: purchased Upstate Biotechnology, Lake Placid, N.Y
Summary of the method: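 Recombinant human Lyn kinase in pH 7.5 Tris buffer with EGTA, vanadate, β-mercaptoethanol and BSA reacted with compound for 40 min at 30° C. The radiolabelled product was captured on P30 filtermats after phosphoric acid stop and counted by scintillation. IC50 came from percent inhibition versus log concentration, using plate maximum/minimum signals.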

[6] = system: A375 malignant melanoma; assay: Cell Proliferation Inhibition Assay (14C-thymidine incorporation), A375; type: cell-based; settings: Homo sapiens, A-375, A375 cells;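 note: proliferation measured by radiolabelled thymidine uptake into new DNA, counted in scintillating 96-well plates, compound-treated wells compared with DMSO-only control wells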
[7] = system: HCT-116 colon carcinoma; assay: Cell Proliferation Inhibition Assay (14C-thymidine incorporation), HCT-116; type: cell-based; settings: Homo sapiens, HCT-116, HCT-116 cells;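 note: proliferation measured as methyl 14C-thymidine uptake into new DNA, counted in 96-well scintillating microplates, compared with DMSO-only control wells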
[8] = system: Human melanoma A375 cells; assay: In Vivo Models - Inhibition of Tumor Growth (A375 xenograft); settings: female athymic mice, 25 mg/kg i.p. daily
Description: The ability of test compounds to inhibit unregulated growth of human tumor cells in vivo was evaluated by implanting human tumor cells into the hindflank of athymic mice, administering a test compound and then quantifying any change in tumor size.
Certain compounds at particular doses produced adverse effects in this model. One skilled in the art would be able to establish the effective amount of compound required to achieve an effective therapeutic window.
Human melanoma A375 cells were implanted subcutaneously into the hindflank of female athymic mice (Charles River) and allowed to grow for 6-10 days. After a measurable tumor was established (as determined by baseline caliper measurement), the animal was administered an intraperitoneal (i.p.) dose of the test compound daily at 25 mg/kg for the length of the study. Tumor size was measured at certain intervals as shown in Table 5 and the degree of inhibition for a test compound was determined by comparing the reduction in tumor volume for drug-treated animals to that of untreated and vehicle-treated animals. The vehicle used was 20% hydroxypropyl β-cyclodextran.

T2 sequence (P04626 679-1255): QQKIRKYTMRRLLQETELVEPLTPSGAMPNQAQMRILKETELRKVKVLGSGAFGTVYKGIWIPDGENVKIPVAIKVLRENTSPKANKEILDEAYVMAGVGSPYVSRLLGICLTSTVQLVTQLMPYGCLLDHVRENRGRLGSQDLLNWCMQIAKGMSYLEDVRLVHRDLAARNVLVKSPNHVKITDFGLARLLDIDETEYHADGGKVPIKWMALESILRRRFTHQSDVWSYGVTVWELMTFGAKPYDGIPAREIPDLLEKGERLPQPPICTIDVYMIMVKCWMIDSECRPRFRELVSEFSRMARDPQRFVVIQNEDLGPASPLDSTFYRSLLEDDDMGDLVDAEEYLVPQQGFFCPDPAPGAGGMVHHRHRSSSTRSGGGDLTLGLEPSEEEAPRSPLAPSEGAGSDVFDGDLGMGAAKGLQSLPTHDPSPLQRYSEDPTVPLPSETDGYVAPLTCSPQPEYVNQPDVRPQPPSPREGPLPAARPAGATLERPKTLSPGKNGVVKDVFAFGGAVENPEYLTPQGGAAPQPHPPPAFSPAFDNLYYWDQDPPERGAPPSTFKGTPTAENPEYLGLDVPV
T4 sequence (P12931 whole entry): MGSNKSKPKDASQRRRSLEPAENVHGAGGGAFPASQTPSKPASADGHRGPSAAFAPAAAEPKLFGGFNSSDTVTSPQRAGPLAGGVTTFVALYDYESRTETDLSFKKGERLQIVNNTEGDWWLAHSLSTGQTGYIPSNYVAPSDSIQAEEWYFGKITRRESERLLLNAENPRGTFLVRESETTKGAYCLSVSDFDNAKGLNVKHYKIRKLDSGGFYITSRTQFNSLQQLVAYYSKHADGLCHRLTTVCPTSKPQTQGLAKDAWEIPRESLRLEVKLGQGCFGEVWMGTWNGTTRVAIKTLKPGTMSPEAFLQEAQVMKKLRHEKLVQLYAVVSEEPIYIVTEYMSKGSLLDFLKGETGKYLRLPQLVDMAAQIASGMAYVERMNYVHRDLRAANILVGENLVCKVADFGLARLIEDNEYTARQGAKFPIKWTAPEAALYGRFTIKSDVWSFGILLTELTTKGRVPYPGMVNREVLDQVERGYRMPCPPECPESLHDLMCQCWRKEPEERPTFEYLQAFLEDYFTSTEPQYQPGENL
T5 sequence (P07948 whole entry): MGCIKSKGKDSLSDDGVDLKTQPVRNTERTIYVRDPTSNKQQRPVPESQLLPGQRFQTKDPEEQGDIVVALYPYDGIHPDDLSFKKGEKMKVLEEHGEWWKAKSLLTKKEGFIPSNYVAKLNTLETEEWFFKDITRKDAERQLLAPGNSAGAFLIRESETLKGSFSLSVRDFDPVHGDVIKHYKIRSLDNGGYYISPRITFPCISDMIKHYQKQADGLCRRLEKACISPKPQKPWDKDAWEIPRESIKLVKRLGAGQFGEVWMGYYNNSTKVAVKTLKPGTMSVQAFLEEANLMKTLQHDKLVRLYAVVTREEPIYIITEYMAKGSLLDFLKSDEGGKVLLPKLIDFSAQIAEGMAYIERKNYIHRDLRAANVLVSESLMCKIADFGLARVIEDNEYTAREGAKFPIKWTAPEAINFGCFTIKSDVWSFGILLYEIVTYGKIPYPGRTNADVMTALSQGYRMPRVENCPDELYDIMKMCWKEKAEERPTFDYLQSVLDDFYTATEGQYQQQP
T1 sequence (O08775 786-1343): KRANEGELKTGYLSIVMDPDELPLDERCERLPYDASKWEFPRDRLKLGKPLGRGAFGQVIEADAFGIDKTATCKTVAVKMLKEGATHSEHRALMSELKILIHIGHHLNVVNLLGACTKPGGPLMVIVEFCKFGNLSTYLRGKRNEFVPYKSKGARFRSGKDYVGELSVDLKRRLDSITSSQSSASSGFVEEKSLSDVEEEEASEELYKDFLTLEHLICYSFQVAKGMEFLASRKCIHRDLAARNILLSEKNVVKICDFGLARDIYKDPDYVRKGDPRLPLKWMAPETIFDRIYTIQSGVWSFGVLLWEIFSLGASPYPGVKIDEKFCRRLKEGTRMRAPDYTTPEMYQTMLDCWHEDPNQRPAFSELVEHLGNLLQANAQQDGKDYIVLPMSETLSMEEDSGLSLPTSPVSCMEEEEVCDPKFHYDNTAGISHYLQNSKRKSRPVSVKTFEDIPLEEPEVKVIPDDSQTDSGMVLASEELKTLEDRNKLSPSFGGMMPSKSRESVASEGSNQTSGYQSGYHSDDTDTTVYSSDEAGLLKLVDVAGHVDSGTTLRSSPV

| Structure (SMILES) | IC50 [1] | IC50 [2] | IC50 [3] | IC50 [4] | IC50 [5] | IC50 [6] | IC50 [7] | Tumor volume ([8]; Day 1) | Tumor volume ([8]; Day 4) | Tumor volume ([8]; Day 8) | Tumor volume ([8]; Day 11) | Tumor volume ([8]; Day 14) |
| --- | --- | --- | --- | --- | --- | --- | --- | --- | --- | --- | --- | --- |
| CCNCc1cncc(-c2cnc3[nH]nc(-c4nc5cc(OC)ccc5[nH]4)c3c2)c1 [Cpd 101, ethyl-{5-[3-(5-methoxy-1H-benzoimidazol-2-yl)-1H-pyrazolo[3,4-b]pyridin-5-yl]-pyridin-3-ylmethyl}-amine] | > 100 nM | 4170 nM | ~1000 nM | 8.85 nM | 2.54 nM | 101 nM | 48.7 nM | 95.4 mm^3 | 128 mm^3 | 354.1 mm^3 | 632.3 mm^3 | 988.7 mm^3 |
| CNCc1cncc(-c2cnc3[nH]nc(-c4nc5cc(OC(F)(F)F)ccc5[nH]4)c3c2)c1 [Cpd 96, methyl-{5-[3-(5-trifluoromethoxy-1H-benzoimidazol-2-yl)-1H-pyrazolo[3,4-b]pyridin-5-yl]-pyridin-3-ylmethyl}-amine] | > 100 nM | 3820 nM | > 100000 nM | 31.2 nM | 8.38 nM | 47.1 nM | 55.5 nM | 95.4 mm^3 | 68.3 mm^3 |  |  |  |
